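These data come from cells grown in 96-well plates and exposed to compound for 48 hours at five concentrations. Here, GI50 denotes the concentration required for 50% inhibition of growth. TGI: concentration producing complete growth inhibition.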

In one experiment the test system is UO-31 renal. Nature of the experiment: NCI anticancer screen, dose series, 48 h.
Regarding `C=CCCCC12CCCc3cccc(c31)NC2=O` (configuration not stated), the TGI was determined as 87.6 µM.

In the case of `Cc1oc2nc(N(C)C)n3nnnc3c2c1C`, the TGI was above 100 µM.

As to `C[C@@H]1C[C@H](O)[C@]2(O)O[C@@H]3C[C@@]4(C=O)[C@@H](CC=C5[C@@H]4CC[C@]4(C)[C@@H](C6=CC(=O)OC6)CC[C@]54O)C[C@H]3O[C@@H]2O1`, the TGI stood at 0.153 µM.

Turning to `C[C@]12CC/C(=N\O)C=C1CC[C@@H]1[C@@H]2CC[C@]2(C)C(=N/O)/C(=C/c3cccnc3)C[C@@H]12`, the TGI is 79.9 µM.

On to `O=C1C(Cl)N(c2ccccc2)C1c1c[nH]c2ccccc12` (configuration not stated), for which the TGI is above 100 µM.

Take `Cc1nc2nnc(C)n2c2c1C(=O)Nc1ccccc1N2`: the TGI was above 100 µM.

On to `O=C(OCc1ccccc1)OOC(=O)OCc1ccccc1`, for which the TGI is above 100 µM.

`O=C1CC(c2ccc([N+](=O)[O-])cc2)C2(C(=O)NC(=S)NC2=O)C(c2ccc([N+](=O)[O-])cc2)C1` (configuration not stated): the TGI was 63.1 µM.

Turning to `CN1CCN(C(=S)N(C)C(=O)c2ccc(Cl)cc2)CC1`, the TGI was above 100 µM.

Take `C(=Nc1ccc(-c2nc3ccccc3s2)cc1)c1ccco1`: the TGI is above 100 µM.

As for `Cc1cccc(N(CCC#N)S(=O)(=O)c2ccccc2)c1`, the TGI is above 100 µM.

For the compound `Cc1cc2cccc(Cl)c2nc1C(=O)c1ccccc1`, the TGI is above 100 µM.

`COc1cc([C@@H]2c3cc4c(cc3C[C@H]3COC(=O)[C@@H]32)OCO4)cc(OC)c1OC`: the GI50 is 0.00501 µM and the TGI is 13.2 µM.

For the compound `COc1cccc(-c2nc(-c3cnccn3)n(Cc3ccccc3)n2)c1`, the TGI is above 100 µM.

In turn, `CC(=O)Nc1ccc(Cl)c(Cl)c1` showed a TGI above 100 µM.

In turn, `O=C1/C(=C/c2ccc(F)cc2)CNC/C1=C\c1ccc(F)cc1` yielded a TGI of 3.3 µM.

Turning to `CCOc1ccc(N=C/C=C(\Cl)c2ccc3ccccc3c2)cc1`, the TGI amounted to 29.9 µM.

`O=C(CCc1ccc(O)cc1)c1c(O)cc(O)cc1OC1OC(CO)C(O)C(O)C1O` (configuration not stated) came in with a TGI above 100 µM.

In the case of `CC(C)=CC1C(C(=O)O)C1(C)C` (configuration not stated), the TGI was above 750 µM.

In turn, `CCOC(=O)C1CC(O)C(=O)N1C` (configuration not stated) yielded a TGI above 100 µM.

In the case of `COc1cccc(C2c3cc4c(cc3OC(N3CCCC3)C2C)OCO4)c1OC` (configuration not stated), the TGI was 7.51 µM.

Take `c1ccc(N=c2snc(-c3ccccc3)s2)cc1`: the TGI was above 100 µM.

`COc1cc2c(cc1OC)C(=O)/C(=C/c1cc(C)c(O)c(C)c1)C2`: the TGI was above 100 µM.

`CCOC(=O)c1c(N)n(-c2ccccc2)c(=S)n(-c2ccccc2)c1=O` showed a TGI above 100 µM.

Compound `CC(=O)CC(=O)c1cc2c(=O)oc(C)cc2oc1=O` registered a TGI above 37.5 µM.

For the compound `OCc1ccccc1C1CSCSC1`, the TGI is above 100 µM.

A further experiment has as its system NCI-H23 lung. The experiment can be described thus: NCI anticancer screen, dose series, 48 h.
Compound `C=CCCCC12CCCc3cccc(c31)NC2=O` (configuration not stated) registered a TGI of 36.8 µM.

For `Cc1oc2nc(N(C)C)n3nnnc3c2c1C`, the TGI was above 100 µM.

The compound `C[C@@H]1C[C@H](O)[C@]2(O)O[C@@H]3C[C@@]4(C=O)[C@@H](CC=C5[C@@H]4CC[C@]4(C)[C@@H](C6=CC(=O)OC6)CC[C@]54O)C[C@H]3O[C@@H]2O1` returned a TGI of 0.0207 µM.

Compound `C[C@]12CC/C(=N\O)C=C1CC[C@@H]1[C@@H]2CC[C@]2(C)C(=N/O)/C(=C/c3cccnc3)C[C@@H]12` showed a TGI above 100 µM.

As for `O=C1C(Cl)N(c2ccccc2)C1c1c[nH]c2ccccc12` (configuration not stated), the TGI was above 100 µM.

Compound `Cc1nc2nnc(C)n2c2c1C(=O)Nc1ccccc1N2` displayed a TGI above 100 µM.

On to `O=C(OCc1ccccc1)OOC(=O)OCc1ccccc1`, for which the TGI is above 100 µM.

As for `O=C1CC(c2ccc([N+](=O)[O-])cc2)C2(C(=O)NC(=S)NC2=O)C(c2ccc([N+](=O)[O-])cc2)C1` (configuration not stated), the TGI was 64.1 µM.

For `CN1CCN(C(=S)N(C)C(=O)c2ccc(Cl)cc2)CC1`, the TGI is above 100 µM.

The compound `C(=Nc1ccc(-c2nc3ccccc3s2)cc1)c1ccco1` returned a TGI above 100 µM.

Compound `Cc1cccc(N(CCC#N)S(=O)(=O)c2ccccc2)c1` had a TGI above 100 µM.

`Cc1cc2cccc(Cl)c2nc1C(=O)c1ccccc1` yielded a TGI above 100 µM.

On to `COc1cc([C@@H]2c3cc4c(cc3C[C@H]3COC(=O)[C@@H]32)OCO4)cc(OC)c1OC`, for which the GI50 was 0.00428 µM and the TGI is 3.52 µM.

`COc1cccc(-c2nc(-c3cnccn3)n(Cc3ccccc3)n2)c1` gave a TGI above 100 µM.

Compound `CC(=O)Nc1ccc(Cl)c(Cl)c1` displayed a TGI above 100 µM.

In the case of `O=C1/C(=C/c2ccc(F)cc2)CNC/C1=C\c1ccc(F)cc1`, the TGI is 3.5 µM.

In the case of `CCOc1ccc(N=C/C=C(\Cl)c2ccc3ccccc3c2)cc1`, the TGI turned out to be 25.1 µM.

Take `O=C(CCc1ccc(O)cc1)c1c(O)cc(O)cc1OC1OC(CO)C(O)C(O)C1O` (configuration not stated): the TGI is above 100 µM.

In turn, `CC(C)=CC1C(C(=O)O)C1(C)C` (configuration not stated) registered a TGI above 750 µM.

In the case of `CCOC(=O)C1CC(O)C(=O)N1C` (configuration not stated), the TGI is above 100 µM.

`COc1cc2c(cc1OC)C(=O)/C(=C/c1cc(C)c(O)c(C)c1)C2` had a TGI above 100 µM.

`CCOC(=O)c1c(N)n(-c2ccccc2)c(=S)n(-c2ccccc2)c1=O` displayed a TGI above 100 µM.

The compound `CC(=O)CC(=O)c1cc2c(=O)oc(C)cc2oc1=O` registered a TGI above 37.5 µM.

For the next experiment, the system named is EKVX NSCLC. Nature of the experiment: NCI anticancer screen, dose series, 48 h.
On to `C=CCCCC12CCCc3cccc(c31)NC2=O` (configuration not stated), for which the TGI worked out at 37.3 µM.

In the case of `Cc1oc2nc(N(C)C)n3nnnc3c2c1C`, the TGI was above 100 µM.

Consider `C[C@@H]1C[C@H](O)[C@]2(O)O[C@@H]3C[C@@]4(C=O)[C@@H](CC=C5[C@@H]4CC[C@]4(C)[C@@H](C6=CC(=O)OC6)CC[C@]54O)C[C@H]3O[C@@H]2O1`, for which the TGI is 0.215 µM.

`C[C@]12CC/C(=N\O)C=C1CC[C@@H]1[C@@H]2CC[C@]2(C)C(=N/O)/C(=C/c3cccnc3)C[C@@H]12` displayed a TGI of 79.5 µM.

In turn, `O=C1C(Cl)N(c2ccccc2)C1c1c[nH]c2ccccc12` (configuration not stated) yielded a TGI above 100 µM.

`Cc1nc2nnc(C)n2c2c1C(=O)Nc1ccccc1N2` had a TGI above 100 µM.

`O=C(OCc1ccccc1)OOC(=O)OCc1ccccc1` had a TGI above 100 µM.

For `O=C1CC(c2ccc([N+](=O)[O-])cc2)C2(C(=O)NC(=S)NC2=O)C(c2ccc([N+](=O)[O-])cc2)C1` (configuration not stated), the TGI was 82.9 µM.

As for `C(=Nc1ccc(-c2nc3ccccc3s2)cc1)c1ccco1`, the TGI is above 100 µM.

With `Cc1cccc(N(CCC#N)S(=O)(=O)c2ccccc2)c1`, the TGI is above 100 µM.

In turn, `COc1cc([C@@H]2c3cc4c(cc3C[C@H]3COC(=O)[C@@H]32)OCO4)cc(OC)c1OC` had a TGI above 50 µM.

On to `COc1cccc(-c2nc(-c3cnccn3)n(Cc3ccccc3)n2)c1`, for which the TGI was above 100 µM.

In turn, `CC(=O)Nc1ccc(Cl)c(Cl)c1` yielded a TGI above 100 µM.

`O=C1/C(=C/c2ccc(F)cc2)CNC/C1=C\c1ccc(F)cc1` displayed a TGI of 4.64 µM.

As to `CCOc1ccc(N=C/C=C(\Cl)c2ccc3ccccc3c2)cc1`, the TGI was 62.1 µM.

On to `O=C(CCc1ccc(O)cc1)c1c(O)cc(O)cc1OC1OC(CO)C(O)C(O)C1O` (configuration not stated), for which the TGI was above 100 µM.

The values are drawn from PubChem BioAssay (NCI).
